Values after ≈ are worked out from the molar mass of the structure shown. Like-named read-outs stand apart in the source and are kept apart here.
How the values were obtained:
Staph. aureus Smith = test: In vivo activity (oral, iv; ED50) against Staph. aureus Smith in mice
Staph. = test: Range of MIC for Staph. strains, including MRSA; details: Staphylococcus aureus
E. coli = test: Range of MIC for E. coli strains; details: Escherichia coli
[1] = Staphylococcus aureus, in Mus musculus, po, read-out: ED50 Staph Smith SOD
[2] = iv, read-out: ED50 Staph Smith SIV
[3] = MRSA, read-out: Minimum inhibitory concentration (MIC), Staph. (mouse serum)
[4] = MRSA, read-out: Minimum inhibitory concentration (MIC), Staph. (water)
[5] = MRSA, read-out: Range of MIC, Staph (Mouse Serum)
[6] = MRSA, read-out: Range of MIC, Staph (Water)
[7] = 20 h, read-out: Range of MIC, E. coli (Mouse Serum)
[8] = read-out: Minimum inhibitory concentration (MIC), E. coli (mouse serum)
[9] = read-out: Minimum inhibitory concentration (MIC), E. coli (water)
[10] = read-out: Range of MIC, E. coli (Water)
[11] = read-out: Minimum inhibitory concentration (MIC), Staph (Human Serum)
[12] = read-out: Minimum inhibitory concentration (MIC), Staph (Water)
[13] = read-out: Minimum inhibitory concentration (MIC), E. coli (Human Serum)

Row | MIC (Staph.; [3]) [µg/mL] | MIC (Staph.; [4]) [µg/mL] | MIC (Staph.; [5]) [µg/mL] | MIC (Staph.; [6]) [µg/mL] | MIC (E. coli; [7]) [µg/mL] | MIC (E. coli; [8]) [µg/mL] | MIC (E. coli; [9]) [µg/mL] | MIC (E. coli; [10]) [µg/mL] | MIC (Staph.; MRSA, read-out: Range of MIC, Staph. (mouse serum)) [µg/mL] | MIC (Staph.; MRSA, read-out: Range of MIC, Staph. (water)) [µg/mL] | MIC (E. coli; read-out: Range of MIC, E. coli (mouse serum)) [µg/mL] | MIC (E. coli; read-out: Range of MIC, E. coli (water)) [µg/mL] | MIC (Staph.; [11]) [µg/mL] | MIC (Staph.; [12]) [µg/mL] | MIC (E. coli; [13]) [µg/mL] | SMILES | ED50 (Staph. aureus Smith; [1]) [mg/kg] | ED50 (Staph. aureus Smith; [2]) [mg/kg]
1 | 0.25 to 4 (≈ 0.325 to 5.2 µM) | 0.25 to 4 (≈ 0.325 to 5.2 µM) | 0.25 to 4 (≈ 0.325 to 5.2 µM) | 0.25 to 4 (≈ 0.325 to 5.2 µM) | 0.5 to 1 (≈ 0.649 to 1.3 µM) | 0.5 to 1 (≈ 0.649 to 1.3 µM) | 4 to 16 (≈ 5.2 to 20.8 µM) | 4 to 16 (≈ 5.2 to 20.8 µM) |  |  |  |  |  |  |  | CCCCN(CC(=O)Nc1cc(N(C)C)c2c(c1O)C(=O)C1=C(O)[C@]3(O)C(=O)C(C(N)=O)=C(O)[C@@H](N(C)C)C3CC1C2)C(=O)OCOC(=O)C1CCCCC1 (stereo partly drawn) [Example 34, ({[(2-{[(7S,10aS)-9-(aminocarbonyl)-4,7-bis(dimethylamino)-1,8,10a,11-tetrahydroxy-10,12-dioxo-5,5a,6,6a,7,10,10a,12-octahydrotetracen-2-yl]amino}-2-oxoethyl)(butyl)amino]carbonyl}oxy)methyl cyclohexanecarboxylate] | 12.9 | 0.71
2 |  |  | 1 to 4 (≈ 1.34 to 5.38 µM) | 2 to 4 (≈ 2.69 to 5.38 µM) | 2 to 4 (≈ 2.69 to 5.38 µM) |  |  | 4 to 32 (≈ 5.38 to 43 µM) |  |  |  |  |  |  |  | CCCN(CC(=O)Nc1cc(N(C)C)c2c(c1O)C(=O)C1=C(O)[C@]3(O)C(=O)C(C(N)=O)=C(O)[C@@H](N(C)C)[C@@H]3C[C@@H]1C2)C(=O)OCOC(=O)C(C)(C)CC [Example 37, ({[(2-{[(5aR,6aS,7S,10aS)-9-(aminocarbonyl)-4,7-bis(dimethylamino)-1,8,10a,11-tetrahydroxy-10,12-dioxo-5,5a,6,6a,7,10,10a,12-octahydrotetracen-2-yl]amino}-2-oxoethyl)(propyl)amino]carbonyl}oxy)methyl 2,2-dimethylbutanoate] | 4.1 | 0.55
3 | 1 to 4 (≈ 1.22 to 4.87 µM) | 2 to 16 (≈ 2.43 to 19.5 µM) | 1 to 4 (≈ 1.22 to 4.87 µM) | 2 to 16 (≈ 2.43 to 19.5 µM) | 1 to 4 (≈ 1.22 to 4.87 µM) | 1 to 4 (≈ 1.22 to 4.87 µM) | 16 to 32 (≈ 19.5 to 38.9 µM) | 16 to 32 (≈ 19.5 to 38.9 µM) |  |  |  |  |  |  |  | CCCCN(CC(=O)Nc1cc(N(C)C)c2c(c1O)C(=O)C1=C(O)[C@]3(O)C(=O)C(C(N)=O)=C(O)[C@@H](N(C)C)[C@@H]3C[C@@H]1C2)C(=O)OCOC(=O)C12CC3CC(CC(C3)C1)C2 [Example 39, ({[(2-{[(5aR,6aS,7S,10aS)-9-(aminocarbonyl)-4,7-bis(dimethylamino)-1,8,10a,11-tetrahydroxy-10,12-dioxo-5,5a,6,6a,7,10,10a,12-octahydrotetracen-2-yl]amino}-2-oxoethyl)(butyl)amino]carbonyl}oxy)methyl adamantane-1-carboxylate] | 13.3 | 0.6
4 |  |  | 0.5 to 4 (≈ 0.619 to 4.95 µM) | 1 to 8 (≈ 1.24 to 9.9 µM) | 0.5 to 4 (≈ 0.619 to 4.95 µM) |  |  | 16 to 64 (≈ 19.8 to 79.2 µM) | 0.5 to 4 (≈ 0.619 to 4.95 µM) | 1 to 8 (≈ 1.24 to 9.9 µM) | 0.5 to 4 (≈ 0.619 to 4.95 µM) | 16 to 64 (≈ 19.8 to 79.2 µM) |  |  |  | CCCN(CC(=O)Nc1cc(N(C)C)c2c(c1O)C(=O)C1=C(O)[C@]3(O)C(=O)C(C(N)=O)=C(O)[C@@H](N(C)C)[C@@H]3C[C@@H]1C2)C(=O)OCOC(=O)C12CC3CC(CC(C3)C1)C2 [Example 41, ({[(2-{[(5aR,6aS,7S,10aS)-9-(aminocarbonyl)-4,7-bis(dimethylamino)-1,8,10a,11-tetrahydroxy-10,12-dioxo-5,5a,6,6a,7,10,10a,12-octahydrotetracen-2-yl]amino}-2-oxoethyl)(propyl)amino]carbonyl}oxy)methyl adamantane-1-carboxylate] | 11.3 | 0.83
5 |  |  | 0.25 to 1 (≈ 0.344 to 1.37 µM) | 1 to 4 (≈ 1.37 to 5.5 µM) | 0.25 to 2 (≈ 0.344 to 2.75 µM) |  |  |  |  |  |  |  | 0.25 to 2 (≈ 0.344 to 2.75 µM) | 1 to 4 (≈ 1.37 to 5.5 µM) | 4 to 32 (≈ 5.5 to 44 µM) | CN(C)c1cc(NC(=O)CN(C(=O)OCOC(=O)C2CC2)C(C)(C)C)c(O)c2c1C[C@H]1C[C@H]3[C@H](N(C)C)C(O)=C(C(N)=O)C(=O)[C@@]3(O)C(O)=C1C2=O [Example 56, ({[(2-{[(5aR,6aS,7S,10aS)-9-(aminocarbonyl)-4,7-bis(dimethylamino)-1,8,10a,11-tetrahydroxy-10,12-dioxo-5,5a,6,6a,7,10,10a,12-octahydrotetracen-2-yl]amino}-2-oxoethyl)(tert-butyl)amino]carbonyl}oxy)methyl cyclopropanecarboxylate] | > 16 | 0.79
6 |  |  | 0.5 to 2 (≈ 0.608 to 2.43 µM) | 4 to 16 (≈ 4.87 to 19.5 µM) | 0.5 to 4 (≈ 0.608 to 4.87 µM) |  | > 64 | > 64 |  |  |  |  | 1 to 8 (≈ 1.22 to 9.73 µM) | 4 to 16 (≈ 4.87 to 19.5 µM) | > 64 | CN(C)c1cc(NC(=O)CN(C(=O)OCOC(=O)C23CC4CC(CC(C4)C2)C3)C(C)(C)C)c(O)c2c1C[C@H]1C[C@H]3[C@H](N(C)C)C(O)=C(C(N)=O)C(=O)[C@@]3(O)C(O)=C1C2=O [Example 57, ({[(2-{[(5aR,6aS,7S,10aS)-9-(aminocarbonyl)-4,7-bis(dimethylamino)-1,8,10a,11-tetrahydroxy-10,12-dioxo-5,5a,6,6a,7,10,10a,12-octahydrotetracen-2-yl]amino}-2-oxoethyl)(tert-butyl)amino]carbonyl}oxy)methyl adamantane-1-carboxylate] | 6.36 | 1.17
7 |  |  | 0.5 to 2 (≈ 0.614 to 2.46 µM) | 4 to 8 (≈ 4.91 to 9.83 µM) | 0.5 to 1 (≈ 0.614 to 1.23 µM) |  |  | 8 to 16 (≈ 9.83 to 19.7 µM) |  |  |  |  |  |  |  | CN(C)c1cc(NC(=O)CN(C(=O)OCOC(=O)c2cccc3ccccc23)C(C)(C)C)c(O)c2c1C[C@H]1C[C@H]3[C@H](N(C)C)C(O)=C(C(N)=O)C(=O)[C@@]3(O)C(O)=C1C2=O [Example 81, ({[(2-{[(5aR,6aS,7S,10aS)-9-(aminocarbonyl)-4,7-bis(dimethylamino)-1,8,10a,11-tetrahydroxy-10,12-dioxo-5,5a,6,6a,7,10,10a,12-octahydrotetracen-2-yl]amino}-2-oxoethyl)(tert-butyl)amino]carbonyl}oxy)methyl 1-naphthoate] | 16 to 32 | > 4
8 |  |  | 4 to 6 (≈ 4.91 to 7.37 µM) | 4 to 8 (≈ 4.91 to 9.83 µM) |  |  |  | > 64 |  |  |  |  |  |  |  | CN(C)c1cc(NC(=O)CN(C(=O)OCOC(=O)c2ccc3ccccc3c2)C(C)(C)C)c(O)c2c1C[C@H]1C[C@H]3[C@H](N(C)C)C(O)=C(C(N)=O)C(=O)[C@@]3(O)C(O)=C1C2=O [Example 82, ({[(2-{[(5aR,6aS,7S,10aS)-9-(aminocarbonyl)-4,7-bis(dimethylamino)-1,8,10a,11-tetrahydroxy-10,12-dioxo-5,5a,6,6a,7,10,10a,12-octahydrotetracen-2-yl]amino}-2-oxoethyl)(tert-butyl)amino]carbonyl}oxy)methyl 2-naphthoate] | 22 | 0.52
9 |  |  | 0.25 to 2 (≈ 0.313 to 2.5 µM) | 1 to 16 (≈ 1.25 to 20 µM) | 2 to 4 (≈ 2.5 to 5 µM) |  |  | > 64 |  |  |  |  |  |  |  | CN(C)c1cc(NC(=O)CN(C(=O)OCOC(=O)c2c(F)cccc2F)C(C)(C)C)c(O)c2c1C[C@H]1C[C@H]3[C@H](N(C)C)C(O)=C(C(N)=O)C(=O)[C@@]3(O)C(O)=C1C2=O [Example 90, ({[(2-{[(5aR,6aS,7S,10aS)-9-(aminocarbonyl)-4,7-bis(dimethylamino)-1,8,10a,11-tetrahydroxy-10,12-dioxo-5,5a,6,6a,7,10,10a,12-octahydrotetracen-2-yl]amino}-2-oxoethyl)(tert-butyl)amino]carbonyl}oxy)methyl 2,6-difluorobenzoate] | 16 to 32 | 0.5 to 1
10 |  |  | 0.12 to 0.25 (≈ 0.153 to 0.32 µM) | 0.25 to 2 (≈ 0.32 to 2.56 µM) | 0.5 to 2 (≈ 0.64 to 2.56 µM) |  |  | > 64 |  |  |  |  |  |  |  | CN(C)c1cc(NC(=O)CN(C(=O)OCOC(=O)c2ccccc2F)C(C)(C)C)c(O)c2c1C[C@H]1C[C@H]3[C@H](N(C)C)C(O)=C(C(N)=O)C(=O)[C@@]3(O)C(O)=C1C2=O [Example 91, ({[(2-{[(5aR,6aS,7S,10aS)-9-(aminocarbonyl)-4,7-bis(dimethylamino)-1,8,10a,11-tetrahydroxy-10,12-dioxo-5,5a,6,6a,7,10,10a,12-octahydrotetracen-2-yl]amino}-2-oxoethyl)(tert-butyl)amino]carbonyl}oxy)methyl 2-fluorobenzoate] | 11.7 | 1.21
11 |  |  | 1 to 2 (≈ 1.2 to 2.4 µM) | 32 to 64 (≈ 38.4 to 76.8 µM) | 1 to 4 (≈ 1.2 to 4.8 µM) |  |  |  |  |  |  |  |  |  |  | CN(C)c1cc(NC(=O)CN(C(=O)OCOC(=O)c2ccc(N3CCCC3)cc2)C(C)(C)C)c(O)c2c1C[C@H]1C[C@H]3[C@H](N(C)C)C(O)=C(C(N)=O)C(=O)[C@@]3(O)C(O)=C1C2=O [Example 93, ({[(2-{[(5aR,6aS,7S,10aS)-9-(aminocarbonyl)-4,7-bis(dimethylamino)-1,8,10a,11-tetrahydroxy-10,12-dioxo-5,5a,6,6a,7,10,10a,12-octahydrotetracen-2-yl]amino}-2-oxoethyl)(tert-butyl)amino]carbonyl}oxy)methyl 4-pyrrolidin-1-ylbenzoate] | > 32 | 0.5 to 1
12 |  |  | 2 to 8 (≈ 2.49 to 9.95 µM) | 4 to 16 (≈ 4.98 to 19.9 µM) | 1 to 4 (≈ 1.24 to 4.98 µM) |  |  | 2 to 8 (≈ 2.49 to 9.95 µM) |  |  |  |  |  |  |  | CCCCN(CC(=O)Nc1cc(N(C)C)c2c(c1O)C(=O)C1=C(O)[C@]3(O)C(=O)C(C(N)=O)=C(O)[C@@H](N(C)C)C3CC1C2)C(=O)OCc1oc(=O)oc1-c1ccccc1 (stereo partly drawn) [Example 112, (2-oxo-5-phenyl-1,3-dioxol-4-yl)methyl 2-{[(7S,10aS)-9-(aminocarbonyl)-4,7-bis(dimethylamino)-1,8,10a,11-tetrahydroxy-10,12-dioxo-5,5a,6,6a,7,10,10a,12-octahydrotetracen-2-yl]amino}-2-oxoethyl(butyl)carbamate] | 6.12 | 0.48
